# Assay results as given in patent US11746116B2, “Antibiotic resistance breakers” (KING'S COLLEGE LONDON, priority 2017, dated 2023).
# Read-outs that look alike come from different tables or passages of the source.
# Tests used:
# [1] = system: VSE775; test: MIC, microdilution broth method; type: cell-based, Enterococcus faecalis; conditions: VSE775; in µg/mL
# [2] = system: VRE12204; test: MIC, microdilution broth method; type: cell-based, Enterococcus faecium; conditions: VRE12204; in µg/mL
# [3] = system: MSSA9144; test: MIC, microdilution broth method; type: cell-based, Staphylococcus aureus; conditions: MSSA9144; in µg/mL
# [4] = system: VRE12201; test: MIC, microdilution broth method; type: cell-based, Enterococcus faecalis; conditions: VRE12201; in µg/mL
# [5] = system: EMRSA15; test: MIC, microdilution broth method; type: cell-based, Staphylococcus aureus
# [6] = system: M6; test: MIC, microdilution broth method; type: cell-based; conditions: M6; Normal (no PMBN); in µg/mL
# [7] = system: EMRSA16; test: MIC, microdilution broth method; type: cell-based, Staphylococcus aureus
# [8] = system: Ab17978; test: MIC, microdilution broth method; type: cell-based; conditions: Ab17978; Normal (no PMBN); in µg/mL
# [9] = system: extended bacterial panel; test: MIC against an extended bacterial panel (Table 15); type: cell-based
compound,measurement,setting,value
"CCn1cc(C(=O)O)c(=O)c2cc(F)c(N3CCNCC3)nc21 [Enoxacin, enoxacin, reference compound]",MIC,[1],16
same,MIC,[2],4-8
same,MIC,[3],2
same,MIC,[4],8
O=C(O)c1cn(C2CC2)c2cc(N3CCN(Cc4ccc(F)c5ccccc45)CC3)c(F)cc2c1=O [ML-77-048],MIC,[1],8
same,MIC,"[5]; EMRSA15, in µg/mL",4
same,MIC,[6],64
same,MIC,[3],4
same,MIC,"[7]; EMRSA16, in µg/mL",8
same,MIC,[8],8
same,MIC,[4],8
"CCn1cc(C(=O)O)c(=O)c2cc(F)c(N3CCN(Cc4ccc(-n5cncn5)cc4)CC3)cc21 [Compound 3.32, 7-(4-(4-(1H-1,2,4-triazol-1-yl)benzyl)piperazin-1-yl)-1-ethyl-6-fluoro-4-oxo-1,4-dihydroquinoline-3-carboxylic acid]",MIC,[1],8
same,MIC,[2],16
same,MIC,[3],1
same,MIC,[4],8
"CN[C@H](CC(C)C)C(=O)N[C@H]1C(=O)N[C@@H](CC(N)=O)C(=O)N[C@H]2C(=O)N[C@H]3C(=O)N[C@H](C(=O)N[C@H](C(=O)O)c4cc(O)cc(O)c4-c4cc3ccc4O)[C@H](O)c3ccc(c(Cl)c3)Oc3cc2cc(c3O[C@@H]2O[C@H](CO)[C@@H](O)[C@H](O)[C@H]2O[C@H]2C[C@](C)(N)[C@H](O)[C@H](C)O2)Oc2ccc(cc2Cl)[C@H]1O [Vancomycin, vancomycin, reference compound]",MIC,"[9]; Staphylococcus aureus, ATCC10390, Staphylococcus aureus ATCC 10390",1 µg/mL
same,MIC,"[9]; Staphylococcus aureus, ATCC 13709 / MRSA, Staphylococcus aureus ATCC 13709, MRSA",0.5 µg/mL
same,MIC,"[9]; Staphylococcus aureus, ATCC19636, Staphylococcus aureus Smith, ATCC 19636",0.5 µg/mL
same,MIC,"[9]; Staphylococcus aureus, ATCC27660, Staphylococcus aureus ATCC 27660",0.5 µg/mL
same,MIC,"[9]; Staphylococcus aureus, ATCC29213, Staphylococcus aureus ATCC 29213",0.5 µg/mL
same,MIC,"[9]; Staphylococcus aureus, ATCC29213, Staphylococcus aureus ATCC 29213 with 50% human serum",1 µg/mL
same,MIC,"[9]; Staphylococcus aureus, ATCC 33591 / MRSA, Staphylococcus aureus ATCC 33591, MRSA",0.5 µg/mL
same,MIC,"[9]; Staphylococcus aureus, ATCC 33592 / MRSA, Staphylococcus aureus ATCC 33592, MRSA",0.5 µg/mL
same,MIC,"[9]; Staphylococcus aureus, ATCC33594, Staphylococcus aureus ATCC 33594",0.5 µg/mL
same,MIC,"[9]; Staphylococcus aureus, ATCC49230, Staphylococcus aureus ATCC 49230",0.5 µg/mL
same,MIC,"[9]; Staphylococcus aureus, BAA-1556 / MRSA / USA300, Staphylococcus aureus FPR3757, BAA-1556, USA300 MRSA",0.5 µg/mL
same,MIC,"[9]; Staphylococcus aureus, BAA-1707 / MRSA / USA400, Staphylococcus aureus MW2, BAA-1707, USA400 MRSA",0.5 µg/mL
same,MIC,"[9]; Staphylococcus aureus, BAA-1717 / MRSA / USA300, Staphylococcus aureus TCH1516, BAA-1717, USA300 MRSA",0.5 µg/mL
same,MIC,"[9]; Staphylococcus aureus, MRSA / NRS 71, Staphylococcus aureus NRS71, MRSA",0.25 µg/mL
same,MIC,"[9]; Staphylococcus aureus, MRSA / NRS 119, Staphylococcus aureus NRS119, MRSA LZD-NS",1 µg/mL
same,MIC,"[9]; Staphylococcus aureus, MRSA / NRS 123 / USA400, Staphylococcus aureus NRS123, USA400 MRSA",0.5 µg/mL
same,MIC,"[9]; Staphylococcus aureus, MRSA / NRS 127, Staphylococcus aureus NRS127, MRSA LZD-NS",1 µg/mL
same,MIC,"[9]; Staphylococcus aureus, MRSA / NRS 271, Staphylococcus aureus E-MRSA 15, NRS271, MRSA LZD-NS",0.5 µg/mL
same,MIC,"[9]; Staphylococcus aureus, MRSA / NRS 382 / USA100, Staphylococcus aureus NRS382, USA100 MRSA",1 µg/mL
same,MIC,"[9]; Staphylococcus aureus, MRSA / NRS 383 / USA200, Staphylococcus aureus NRS383, USA200 MRSA TIG-NS",0.5 µg/mL
same,MIC,"[9]; Staphylococcus aureus, MRSA / NRS 384 / USA300, Staphylococcus aureus NRS384, USA300 MRSA",0.5 µg/mL
same,MIC,"[9]; Staphylococcus aureus, MRSA / NRS 385 / USA500, Staphylococcus aureus NRS385, USA500 MRSA",0.5 µg/mL
same,MIC,"[9]; Staphylococcus aureus, MRSA / NRS 386 / USA700, Staphylococcus aureus NRS386, USA700 MRSA",0.5 µg/mL
same,MIC,"[9]; Staphylococcus aureus, MRSA / NRS 387 / USA800, Staphylococcus aureus NRS387, USA800 MRSA",1 µg/mL
same,MIC,"[9]; Staphylococcus aureus, MRSA / NRS 483, Staphylococcus aureus NRS483, USA1000 MRSA",0.5 µg/mL
same,MIC,"[9]; Staphylococcus aureus, MRSA / NRS 484, Staphylococcus aureus NRS484, USA1100 MRSA",1 µg/mL
same,MIC,"[9]; Staphylococcus aureus, MRSA, Staphylococcus aureus ECL 2963621, MRSA DAP-NS",1 µg/mL
same,MIC,"[9]; Staphylococcus aureus, MRSA, Staphylococcus aureus ECL 2963667, MRSA DAP-NS",1 µg/mL
same,MIC,"[9]; Staphylococcus aureus, MRSA, Staphylococcus aureus ECL 2963743, MRSA DAP-NS",1 µg/mL
same,MIC,"[9]; Staphylococcus aureus, MRSA, Staphylococcus aureus R136",0.5 µg/mL
same,MIC,"[9]; Staphylococcus aureus, NRS72, Staphylococcus aureus Sanger-476, NRS72",0.5 µg/mL
same,MIC,"[9]; Staphylococcus aureus, NRS157, Staphylococcus aureus NRS157",0.5 µg/mL
same,MIC,"[9]; Staphylococcus aureus, Staphylococcus aureus 6538P",0.125 µg/mL
same,MIC,"[9]; Staphylococcus epidermidis, ATCC12228, Staphylococcus epidermidis ATCC 12228",0.5 µg/mL
same,MIC,"[9]; Staphylococcus epidermidis, ATCC51625, Staphylococcus epidermidis CCF 15990, ATCC 51625",1 µg/mL
same,MIC,"[9]; Staphylococcus epidermidis, NRS101, Staphylococcus epidermidis NRS101",1 µg/mL
same,MIC,"[9]; Staphylococcus haemolyticus, ATCC29970, Staphylococcus haemolyticus ATCC 29970",1 µg/mL
same,MIC,"[9]; Staphylococcus intermedius, ATCC29663, Staphylococcus intermedius ATCC 29663",1 µg/mL
same,MIC,"[9]; Staphylococcus saprophyticus, ATCC15305, Staphylococcus saprophyticus ATCC 15305",0.5 µg/mL
same,MIC,[9]; Strepotococcus pyogenes ATCC 14289,0.25 µg/mL
same,MIC,[9]; Strepotococcus pyogenes ATCC 19615,0.25 µg/mL
same,MIC,"[9]; Streptococcus agalactiae, ATCC12386, Streptococcus agalactiae ATCC 12386",0.5 µg/mL
same,MIC,"[9]; Streptococcus mutans, ATCC25175, Streptococcus mutans ATCC 25175",2 µg/mL
same,MIC,"[9]; Streptococcus oralis, ATCC9811, Streptococcus oralis ATCC 9811",0.5 µg/mL
same,MIC,"[9]; Streptococcus pneumoniae, ATCC6301, Streptococcus pneumoniae ATCC 6301",0.25 µg/mL
same,MIC,"[9]; Streptococcus pneumoniae, ATCC49619, Streptococcus pneumoniae ATCC 49619",0.25 µg/mL
same,MIC,"[9]; Streptococcus pneumoniae, ATCC51916, Streptococcus pneumoniae Tenessee 23F, ATCC 51916, MDR",0.25 µg/mL
same,MIC,"[9]; Streptococcus pneumoniae, ATCC700669, Streptococcus pneumoniae SP264, ATCC 700669, ST 23F",0.25 µg/mL
same,MIC,"[9]; Streptococcus pneumoniae, ATCC700673, Streptococcus pneumoniae Hungary 19A, ATCC 700673, MDR",0.25 µg/mL
same,MIC,"[9]; Streptococcus pneumoniae, ATCC700675, Streptococcus pneumoniae S. Africa 6B-8, ATCC 700675",0.25 µg/mL
same,MIC,"[9]; Streptococcus pneumoniae, ATCC700676, Streptococcus pneumonia England ST14-9 ATCC 700676, ERY-R",0.25 µg/mL
same,MIC,"[9]; Streptococcus pneumoniae, ATCC 700677 / PRSP, Streptococcus pneumoniae CSR 14-10, ATCC 700677, PRSP",0.25 µg/mL
same,MIC,"[9]; Streptococcus pneumoniae, PRSP, Streptococcus pneumoniae TM532",0.25 µg/mL
same,MIC,"[9]; Streptococcus salivarius, ATCC13419, Streptococcus salivarius ATCC 13419",0.5 µg/mL
same,MIC,"[9]; Streptococcus sanguinis, ATCC10556, Streptococcus sanguinis ATCC 10556",0.5 µg/mL
O=C(O)c1cn(C2CC2)c2cc(N3CCN(Cc4cccc5cccnc45)CC3)c(F)cc2c1=O [ML-77-052],MIC,[1],4
same,MIC,"[5]; EMRSA15, in µg/mL",64
same,MIC,[6],4
same,MIC,[3],0.5
same,MIC,[8],0.25
same,MIC,[4],2
C[C@H]1COc2c(N3CC[C@@H](N)C3)c(F)cc3c(=O)c(C(=O)O)cn1c23 [KSN-L44],"MIC, EMRSA15","[5]; EMRSA15 (Table 16, role of the terminal pyrimidine ring), in µg/mL",32
same,"MIC, EMRSA16","[7]; EMRSA16 (Table 16, role of the terminal pyrimidine ring), in µg/mL",32
"CN(C)c1cc(NC(=O)CNC(C)(C)C)c(O)c2c1C[C@H]1C[C@H]3[C@H](N(C)C)C(O)=C(C(N)=O)C(=O)[C@@]3(O)C(O)=C1C2=O [Tigecycline, tigecycline, reference compound]",MIC,"[9]; Enterococcus faecalis, ATCC29212, Enterococcus faecalis ATCC 29212",0.125 µg/mL
same,MIC,"[9]; Enterococcus faecalis, ATCC51299, Enterococcus faecalis ATCC 51299, VanB",0.0625 µg/mL
same,MIC,"[9]; Enterococcus faecalis, ATCC51575, Enterococcus faecalis ATCC 51575, VanB",0.125 µg/mL
same,MIC,"[9]; Enterococcus faecalis, ATCC700802, Enterococcus faecalis ATCC 700802, VanB",0.125 µg/mL
same,MIC,"[9]; Enterococcus faecalis, CCUG47775, Enterococcus faecalis CCUG 47775, Van A",0.125 µg/mL
same,MIC,"[9]; Enterococcus faecium, CCUG59167, Enterococcus faecium TUH44-29, CCUG 59167, Van A",0.0625 µg/mL
same,MIC,"[9]; Enterococcus gallinarum, ATCC 49608 / GALLINARUM, Enterococcus gallinarum ATCC 49608, VanC",0.125 µg/mL
C[C@H]1COc2c(N3CCCN(c4ncc(F)cn4)CC3)c(F)cc3c(=O)c(C(=O)O)cn1c23 [ML-83-034],MIC,"[5]; Staphylococcus aureus, Staphylococcus aureus (EMRSA15), Table 12, read-out: MIC",8 µg/mL
same,MIC,"[7]; Staphylococcus aureus (EMRSA16), Table 12, read-out: MIC",16 µg/mL
O=C(O)c1cn(C2CC2)c2cc(N3CCN(Cc4cc(=O)[nH]c5ccccc45)CC3)c(F)cc2c1=O [ML-77-058],MIC,[6],4-32
same,MIC,[3],0.25-1
same,MIC,[4],0.5-4
